pKi: −log10 of the molar value.
Each compound was assayed against T1, human GCGR (Homo sapiens, UniProt P47871) (assay: Cellular functional assay, cAMP readout (glucagon-stimulated cAMP, LANCE TR-FRET)). Conditions: HEK293 cells stably expressing full-length human GCGR; glucagon 100 pM; IC50 converted to Ki; read-out: Inhibition of cAMP Ki.
T1 construct: expressed in transfected cells; host or cells: HEK293 (hGluc-1HEK), pcDNA3.1, G418 selection
Type: cell-based

T1 sequence (P47871 26-477): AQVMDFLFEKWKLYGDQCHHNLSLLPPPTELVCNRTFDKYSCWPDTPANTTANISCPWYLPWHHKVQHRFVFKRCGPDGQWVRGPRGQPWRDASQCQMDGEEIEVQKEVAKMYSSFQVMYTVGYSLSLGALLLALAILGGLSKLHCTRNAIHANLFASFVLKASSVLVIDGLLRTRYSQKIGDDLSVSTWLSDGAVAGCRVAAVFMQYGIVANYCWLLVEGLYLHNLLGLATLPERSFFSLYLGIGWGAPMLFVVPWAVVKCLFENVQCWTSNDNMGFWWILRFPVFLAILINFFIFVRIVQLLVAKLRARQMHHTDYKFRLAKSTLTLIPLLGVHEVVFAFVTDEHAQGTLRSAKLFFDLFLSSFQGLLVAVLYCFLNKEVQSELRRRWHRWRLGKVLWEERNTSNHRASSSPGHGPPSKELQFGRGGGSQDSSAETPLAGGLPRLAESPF

Row | SMILES | pKi
1 | CC(C)CC(c1ccc(C(=O)NCCC(=O)O)cc1)n1ncc2cc(-c3cc4ccc(F)cc4s3)ccc21 (stereo not shown) [compound 126] | 6.55
2 | CCCCCCC(c1ccc(C(=O)NCCC(=O)O)cc1)n1ncc2cc(-c3ccc(C(C)(C)C)cc3)ccc21 (stereo not shown) [compound 128] | 6.70
3 | CC(C)CC(c1ccc(C(=O)NCCC(=O)O)cc1)n1cc2cc(-c3cc4cc(F)ccc4s3)ccc2n1 (stereo not shown) [compound 129] | 7.06
4 | COc1ccc2sc(-c3ccc4c(cnn4C(CC(C)C)c4ccc(C(=O)NCCC(=O)O)cc4)c3)cc2c1 (stereo not shown) [compound 132] | 6.64
5 | O=C(O)CCNC(=O)c1ccc(C(CCC2CCCCC2)n2cc3cc(-c4ccc(C(F)(F)F)cc4)ccc3n2)cc1 (stereo not shown) [compound 133] | 7.04
6 | O=C(O)CCNC(=O)c1ccc(C(C2CCCCC2)n2cc3cc(-c4ccc(C(F)(F)F)cc4)ccc3n2)cc1 (stereo not shown) [compound 136] | 6.87
7 | O=C(O)CCNC(=O)c1ccc(C(CC2CC2)n2cc3cc(-c4ccc(C(F)(F)F)cc4)ccc3n2)cc1 (stereo not shown) [compound 139] | 6.70
8 | Cc1cc(Cl)ccc1-c1ccc2c(cnn2C(CC(C)(C)C)c2ccc(C(=O)NCCC(=O)O)cc2)c1 (stereo not shown) [compound 151] | 7.05
9 | Cc1cc(Cl)ccc1-c1ccc2c(cnn2C(CCC2CCCCC2)c2ccc(C(=O)NCCC(=O)O)cc2)c1 (stereo not shown) [compound 157] | 6.60
10 | CC(C)CC(c1ccc(C(=O)NCCC(=O)O)cc1)n1ncc2cc(-c3cnn(C)c3)ccc21 (stereo not shown) [compound 164] | < 5.28
11 | CC(C)CC(c1ccc(C(=O)NCCC(=O)O)cc1)n1ncc2cc(-c3cccc4ccccc34)ccc21 (stereo not shown) [compound 165] | 5.87
12 | CCCCCC(c1ccc(C(=O)NCCC(=O)O)cc1)n1cc2cc(-c3ccc(C(C)(C)C)cc3)ccc2n1 (stereo not shown) [compound 170] | 6.61
13 | CCCCCC(c1ccc(C(=O)NCCC(=O)O)cc1)n1cc2cc(-c3ccc(C(F)(F)F)cc3)ccc2n1 (stereo not shown) [compound 171] | 6.88
14 | CC(C)CC(c1ccc(C(=O)NCCC(=O)O)cc1)n1ncc2cc(-c3cc4cc(F)ccc4s3)ccc21 (stereo not shown) [compound 172] | 6.59
15 | Cc1cc(Cl)ccc1-c1ccc2c(cnn2C(CC2CCCCC2)c2ccc(C(=O)NCCC(=O)O)nc2)c1 (stereo not shown) [compound 183] | 6.46
16 | O=C(O)CCNC(=O)c1ccc(C(CC2CCCC2)n2cc3cc(-c4ccc(C(F)(F)F)cc4)ccc3n2)cn1 (stereo not shown) [compound 188] | 6.78
17 | Cc1cc(Cl)ccc1-c1ccc2c(cnn2C(CC2CCCCC2)c2ccc(C(=O)NCCC(=O)O)cc2)c1 (stereo not shown) [compound 194] | 6.68

Row | SMILES | pKi
18 | Cc1cc(Cl)ccc1-c1ccc2nn(C(CC(C)(C)C)c3ccc(C(=O)NCCC(=O)O)cc3)cc2c1 (stereo not shown) [compound 195] | 7.38
19 | O=C(O)CCNC(=O)c1ccc(C(CCc2ccc(Cl)cc2)n2cc3cc(-c4ccc(C(F)(F)F)cc4)ccc3n2)cc1 (stereo not shown) [compound 200] | 7.10
20 | CCCCCCC(c1ccc(C(=O)NCCC(=O)O)cc1)n1cc2cc(-c3ccc(Cl)cc3C)ccc2n1 (stereo not shown) [compound 204] | 7.68
21 | O=C(O)CCNC(=O)c1ccc(C(CC2CCCC2)n2ncc3cc(-c4ccc(C(F)(F)F)cc4)ccc32)cc1 (stereo not shown) [compound 208] | 6.76
22 | Cc1cc(Cl)ccc1-c1ccc2c(cnn2C(CCC2CCCCC2)c2ccc(C(=O)NCCC(=O)O)nc2)c1 (stereo not shown) [compound 210] | 6.44
23 | CC(C)(C)CC(c1ccc(C(=O)NCCC(=O)O)nc1)n1cc2cc(-c3ccc(C(F)(F)F)cc3)ccc2n1 (stereo not shown) [compound 212] | 7.05
24 | CC(C)CC(c1ccc(C(=O)NCCC(=O)O)cc1)n1ncc2cc(-c3cccnc3)ccc21 (stereo not shown) [compound 219] | < 5.28
25 | COc1ccc2cc(-c3ccc4c(cnn4C(CC(C)C)c4ccc(C(=O)NCCC(=O)O)cc4)c3)ccc2c1 (stereo not shown) [compound 222] | 6.10
26 | Cc1ccc2sc(-c3ccc4c(cnn4C(CC(C)C)c4ccc(C(=O)NCCC(=O)O)cc4)c3)cc2c1 (stereo not shown) [compound 230] | 6.55
27 | CC(C)(C)CC(c1ccc(C(=O)NCCC(=O)O)cc1)n1ncc2cc(-c3ccc(C(F)(F)F)cc3)ccc21 (stereo not shown) [compound 231] | 7.02
28 | CC(C)(C)CC(c1ccc(C(=O)NCCC(=O)O)nc1)n1ncc2cc(-c3ccc(C(F)(F)F)cc3)ccc21 (stereo not shown) [compound 237] | 6.80
29 | Cc1cc(Cl)ccc1-c1ccc2c(cnn2C(CC(C)(C)C)c2ccc(C(=O)NCCC(=O)O)nc2)c1 (stereo not shown) [compound 238] | 6.68
30 | O=C(O)CCNC(=O)c1ccc(C(CC2CCCCC2)n2cc3cc(-c4ccc(C(F)(F)F)cc4)ccc3n2)cn1 (stereo not shown) [compound 240] | 6.70
31 | Cc1cc(Cl)ccc1-c1ccc2nn(C(CCC3CCCCC3)c3ccc(C(=O)NCCC(=O)O)cc3)cc2c1 (stereo not shown) [compound 247] | 7.43
32 | Cc1cc(Cl)ccc1-c1ccc2nn(C(CC3CCCCC3)c3ccc(C(=O)NCCC(=O)O)nc3)cc2c1 (stereo not shown) [compound 249] | 7.38
33 | O=C(O)CCNC(=O)c1ccc(C(CC2CCCC2)n2cc3cc(-c4ccc(C(F)(F)F)cc4)ccc3n2)cc1 (stereo not shown) [compound 254] | 7.05

More lines, now with the values ahead:

Row | pKi | SMILES
34 | 6.51 | O=C(O)CCNC(=O)c1ccc(C(CC2CCCCC2)n2ncc3cc(-c4ccc(C(F)(F)F)cc4)ccc32)cc1 (stereo not shown) [compound 131]
35 | 5.73 | COc1c(-c2ccc(C(F)(F)F)cc2C)ccc2c1cnn2[C@H](CC(C)C)c1ccc(C(=O)NCCC(=O)O)cc1 [compound 145, (R)-3-(4-(1-(4-Methoxy-5-(2-methyl-4-(trifluoromethyl)phenyl)-1H-indazol-1-yl)-3-methylbutyl)benzamido)propanoic acid]
36 | 7.38 | Cc1cc(Cl)ccc1-c1ccc2nn(C(CC3CCCCC3)c3ccc(C(=O)NCCC(=O)O)cc3)cc2c1 (stereo not shown) [compound 153]
37 | 6.81 | CCCCCCC(c1ccc(C(=O)NCCC(=O)O)cc1)n1ncc2cc(-c3ccc(C(F)(F)F)cc3)ccc21 (stereo not shown) [compound 159]
38 | 7.15 | CCOc1c(-c2ccc(C)cc2C)ccc2nn(C(CC(C)C)c3ccc(C(=O)NCCC(=O)O)nc3)cc12 (stereo not shown) [compound 182]
39 | 6.81 | CCCCCCC(c1ccc(C(=O)NCCC(=O)O)nc1)n1ncc2cc(-c3ccc(C(F)(F)F)cc3)ccc21 (stereo not shown) [compound 193]
40 | 6.51 | O=C(O)CCNC(=O)c1ccc(C(CC2CCCC2)n2ncc3cc(-c4ccc(C(F)(F)F)cc4)ccc32)cn1 (stereo not shown) [compound 199]
41 | 7.12 | CCCCCCC(c1ccc(C(=O)NCCC(=O)O)nc1)n1cc2cc(-c3ccc(Cl)cc3C)ccc2n1 (stereo not shown) [compound 203]
42 | 7.07 | O=C(O)CCNC(=O)c1ccc(C(CC2CCC2)n2cc3cc(-c4ccc(C(F)(F)F)cc4)ccc3n2)cc1 (stereo not shown) [compound 211]
43 | 5.54 | CC(C)CC(c1ccc(C(=O)NCCC(=O)O)cc1)n1ncc2cc(-c3ccsc3)ccc21 (stereo not shown) [compound 221]
44 | 6.56 | O=C(O)CCNC(=O)c1ccc(C(CCCC(F)(F)F)n2ncc3cc(-c4ccc(C(F)(F)F)cc4)ccc32)cc1 (stereo not shown) [compound 234]
45 | < 5.28 | CC(C)CC(c1ccc(C(=O)NCCC(=O)O)nc1)n1cc2c(C(F)(F)F)c(-c3ccc(C(F)(F)F)cc3Cl)ccc2n1 (stereo not shown) [compound 235]
46 | 6.70 | CCCCCCC(c1ccc(C(=O)NCCC(=O)O)nc1)n1ncc2cc(-c3ccc(Cl)cc3C)ccc21 (stereo not shown) [compound 244]
47 | 6.68 | CCCCCCC(c1ccc(C(=O)NCCC(=O)O)cc1)n1ncc2cc(-c3ccc(Cl)cc3C)ccc21 (stereo not shown) [compound 245]
48 | 6.19 | O=C(O)CCNC(=O)c1ccc(C(CC2CCC2)n2ncc3cc(-c4ccc(C(F)(F)F)cc4)ccc32)cn1 (stereo not shown) [compound 251]
49 | 6.26 | O=C(O)CCNC(=O)c1ccc(C(CC2CCCCC2)n2ncc3cc(-c4ccc(C(F)(F)F)cc4)ccc32)cn1 (stereo not shown) [compound 255]

— patent US10000473B2, “Indazole derivatives useful as glucagon receptor antagonists” (Janssen Pharmaceutica NV, priority 2016, dated 2018)
